Data as given in US9084769B2, “Compositions comprising non steroidal anti-inflammatory drugs and methods for use thereof” (priority 2011, dated 2015).
Where two headings read alike, the source gives them in different places. Each block holds one compound with its values, some of them ahead of it.

Columns and labels:
[1] = changes in hemoglobin over seven weeks (HemoCue Hb 201); type: in vivo; conditions: mice followed for seven weeks, blood on days 0, 14, 28, 49; FIG. 3
[2] = test system: acetylcholine-induced mouse writing model; test: acetylcholine-induced mouse writing model (analgesic effects); type: in vivo, mice; conditions: oral, predetermined ED50 dose ranges, 30 min before i.p. acetylcholine; writhes counted for 30 min; FIG. 1
Experimental: C57Bl/6 mice and Sprague-Dawley (SD) rats were used. Animals were group-housed under controlled temperature (25° C.) and photoperiods (12:12-hour light-dark cycle), and allowed unrestricted access to standard diet and tap water, unless otherwise noted. Animals were allowed to acclimate to these conditions for at least 7 days before inclusion in experiments. For each group of experiments, animals were matched by age, sex, and body weight. Care and experimentation of mice were performed in accordance with guidelines under protocols approved by the Institutional Animal Care and Use Committee.
To evaluate the effects of pain, the analgesic effects of Epi, ZnCar, Ibu, Nap, Cox, Ibu+Epi, Ibu+ZnCl, Ibu+ZnSt, Ibu+ZnCar, Ibu+Epi+ZnCl, and Ibu+Epi+ZnCar were tested in acetylcholine-induced (8.3 mg/kg, i.p.) mouse writing model. Seven mice were used in each group and were administered drugs orally at predetermined ED50 dose ranges. Thirty minutes after the oral administration of test drug, mice were provided with an intraperitoneal injection of 5.5 mg/kg acetylcholine bromide. […] The number of writhes was counted for 30 min and percentage nociception was calculated and correlatively compared between the groups.

[3] = test system: Carrageenin-induced hind paw edema; test: Carrageenin-induced hind paw edema; type: in vivo, SD rats; conditions: oral, specific predetermined doses; plethysmometer, baseline and three hours after induction
Experimental: C57Bl/6 mice and Sprague-Dawley (SD) rats were used. Animals were group-housed under controlled temperature (25° C.) and photoperiods (12:12-hour light-dark cycle), and allowed unrestricted access to standard diet and tap water, unless otherwise noted. Animals were allowed to acclimate to these conditions for at least 7 days before inclusion in experiments. For each group of experiments, animals were matched by age, sex, and body weight. Care and experimentation of mice were performed in accordance with guidelines under protocols approved by the Institutional Animal Care and Use Committee. To evaluate the effects of inflammation, Epi, ZnCar, Ibu, Nap, Cox, Ibu+Epi, Ibu+ZnCl, Ibu+ZnSt, Ibu+ZnCar, Ibu+Epi+ZnCl, and Ibu+Epi+ZnCar were administered in specific predetermined doses. Six rats were used in each group. Carrageenin-induced hind paw edema was established in SD rats using Lambda-carrageenin solution injected so into the right hind paw within the first hour of oral administration of these drugs. The paw volume was estimated using a plethysmometer both at baseline and three hours following induction.

change in hemoglobin [1]: progressive decrease in hemoglobin
Compound: COc1ccc2cc([C@H](C)C(=O)O)ccc2c1 [Nap, naproxen]
change in systolic blood pressure (in words) (mouse, in vivo): significant elevations in systolic blood pressure

Compound: O=C[C@@H](O)[C@@H](O)[C@H](O[C@@H]1O[C@H](CO)[C@H](O)[C@H](O)[C@H]1O)[C@H](O)CO [Epi, 4-O-β-galactopyranosyl-d-mannose]
antinociceptive response (number of writhes, percentage nociception) [2]: did not exhibit therapeutic efficacy in the management of acute pain
clinical response, paw volume 3 hours after carrageenin injection [3]: did not exhibit therapeutic efficacy in the management of acute inflammation

change in hemoglobin [1]: progressive decrease in hemoglobin
Compound: Cc1ccc(-c2cc(C(F)(F)F)nn2-c2ccc(S(N)(=O)=O)cc2)cc1 [Cox, celecoxib]
change in systolic blood pressure (in words) (mice, measured daily, tail-cuff, p<0.05): significant elevations in systolic blood pressure

Compound: CC(C)Cc1ccc(C(C)C(=O)O)cc1 (centres unmarked) [Ibu, ibuprofen]
change in systolic blood pressure (in words) (mouse, in vivo): significant elevations in systolic blood pressure
systolic blood pressure (mean) (mouse, in vivo): 129.3 mmHg
change in hemoglobin [1]: progressive highly significant decrease in hemoglobin

Compound: zinc carnosine [ZnCar]
antinociceptive response (number of writhes, percentage nociception) [2]: did not exhibit therapeutic efficacy in the management of acute pain
clinical response, paw volume 3 hours after carrageenin injection [3]: did not exhibit therapeutic efficacy in the management of acute inflammation
